Experimental data: US8541167B2 (priority 2004, dated 2013)
Where two headings read alike, the source gives them in different places.

What was measured:
[1] = test system: live vaccinia virus (Dryvax); design: species or system A/NCr mice; conditions: mouse, in vivo
orthopoxvirus = test system: orthopoxvirus; design: species or system A/NCr mice; conditions: mouse, in vivo
[2] = in vivo; cited from earlier work

Molecule | attenuation of lesion development and acceleration of lesion resolution, compared with CDV [1] | severity of vaccine lesions and healing [1] | post challenge anti-orthopoxvirus antibody titers, presence vs absence of CDV (orthopoxvirus) | pre-challenge anti-orthopoxvirus antibody titers, presence vs absence of CDV (orthopoxvirus) | Lesion score [1] | Lesion score ([1]; 12.5 mg/kg) | oral bioavailability [2]
hexadecyloxypropyl-CDV [HDP-CDV] | more efficacious than CDV | decreased the severity of vaccine lesions and facilitated healing |  |  |  |  | 
Nc1ccn(C[C@@H](CO)OCP(=O)(O)O)c(=O)n1 [Cidofovir] |  | decreased the severity of vaccine lesions and facilitated healing | similar | lower | 0 | 0 | low
